The source of these data is US20100003217A1, “Compounds and Pharmaceutical Compositions for the Treatment of Viral Infections” (priority 2008, published 2010).

Data set [1] can be described thus: Cytotoxicity assay (MTS), GS4.1 cells. In kind it is cell-based, human. The following applies: human, 3 days (NS4A-ELISA Assay). As for the experimental part: The cytotoxicity assay measures the viability of cells after treatment with a test compound for 3 days in either GS4.1 cells or Zluc cells. […] The cytotoxicity assay is summarized as follows. Ninety-six-well tissue culture plates were seeded with GS4.1 or Zluc cells. Antiviral compound solutions were made up freshly in medium as 2×-concentrated stocks. Eight additional 3-fold drug dilutions were prepared from these stocks in medium for a total of 9 dilutions. At least four hours after the cells were seeded, drug treatment was initiated by adding one volume of each 2×-concentrated drug dilution to one volume of cells/medium in the tissue culture plates. Cells were then incubated for 3 days at 37° C./5% CO2. After 3 days of treatment, the CellTiter 96® Aqueous One Solution cell proliferation assay (Promega) was performed by adding the MTS solution to each well. The plates were then incubated at 37° C./5% CO2 for 3.5 hours. Plates were then read in a Victor^3V 1420 multilabel counter (Perkin Elmer) and CC50 concentrations were determined using Microsoft Excel and XLfit 4.1 software.
Background: In an ELISA, binding on a coated surface is turned into a signal by an enzyme label.

Data set [2] is described as follows: Cytotoxicity (MTS assay), 184R-D2 cells. As to conditions: human, 184R-D2 cells (S282T), 184R-D2 (S282T), N = 3. In kind it is cell-based. As for the experimental part: Cells were plated and treated with inhibitors as described above.
In general terms: Tetrazolium dyes change colour on reduction, which living cells bring about.

The test system of data set [3] is S282T HCV replicon (184R-D2 cells). Briefly: microbe, parasite or virus in culture. On the procedure: (§1) 1. […] Huh-7 cells were seeded into column 1 of each plate at a similar density.
(§2) 2. […] Eight additional 3-fold serial dilutions of each compound were prepared from the 2× stock in assay medium. Final drug concentrations ranged from 100 to 0.015 μM.
(§3) 3. […] This setup was run in duplicate in each 96-well plate.
(§4) 4. Cells were incubated with inhibitors for three days at 37° C./5% CO2.
(§5) 1. After three days of drug treatment, media was removed from the plates via gentle tapping and the cells were fixed to the plates with 100 μL/well of 1:1 acetone:methanol.
(§6) 2. After one minute of incubation at room temperature, plates were washed three times with 100 μL/well of ELISA wash solution and then blocked with 150 μL/well of 10% FBS-TNE.
(§7) 3. After a one hour incubation at room temperature, plates were washed three times with 100 μL/well of ELISA wash solution, and then 100 μL/well of mouse anti-hepatitis C […] mAb (1 mg/mL stock diluted 1:1,500 in 10% FBS-TNE) was added.
(§8) 4. Following 2 hours of incubation at 37° C., plates were washed three times with 100 μL/well of ELISA wash solution, and then 100 μL/well of HRP-goat anti-mouse antibody (diluted 1:4,000 in 10% FBS-TNE) was added.
(§9) 4. After a one hour incubation period at 37° C., each plate was washed three times with 100 μL/well of ELISA wash solution. Color development was then initiated with 100 μL/well of OPD solution.
(§10) 5. After a 30 minute incubation period in the dark at room temperature, reactions were stopped by adding 100 μL of 2NH2SO4 to each well.
(§11) 6. The absorbance was measured at 490 nm on a Victor^3 V 1420 multilabel counter (Perkin Elmer). The percent inhibition of HCV replicon replication was calculated for each drug using an average of the duplicate wells.

The subject of data set [4] is wild-type HCV replicon (GS4.1 cells). As to the kind of experiment: microbe, parasite or virus in culture. On the procedure: as §1, §2, §3, §4, §5, §6, §7, §8, §9, §10, §11
A further data set concerns the target CYP2B6 (Homo sapiens, UniProt P20813). As to the kind of experiment: Incubation with human recombinant CYP450 supersomes, 2B6. In kind it is in vitro ADME. The following applies: CYP450 2B6 supersomes, 60 min, 10 μM, average of two experiments. On the procedure:
Supersomes—Incubations were conducted in a final volume of 0.1 mL reaction buffer (50-100 mM potassium phosphate, pH 7.4 or 100 mM Tris-HCL, pH 7.4) according to protocol provided with each CYP450 supersome. Each reaction contained […] of CYP450 supersome, 1.3 mM NADP^+, 3.3 mM glucose-6-phosphate, 0.4 U/mL glucose-6-phosphate dehydrogenase, 3.3 mM MgCl2 and 10 μM Compound 1. Following incubation for 60 min at 37° C., 100 μL of stop solution (acetonitrile:methanol; 1:1) was added and samples centrifuged for 10 min at 10,000×g. The supernatant was then dried and reconstituted in 10 mM potassium phosphate, pH 5, further transferred to an HPLC glass vial and analyzed by HPLC-UV (described above).

Data set [5] can be described thus: Metabolite profile in rat plasma. As to conditions: rat terminal plasma, IV (2, 6, 24 h) and PO (6 h). In kind it is in vivo, male Sprague-Dawley rats. As for the experimental part: Pooled terminal rat plasma samples were prepared for Group 1A, Group 1C, and Groups 2A-C. The pools were prepared by combining 1 mL of plasma from each of the four animals. Subsamples (2 mL each) of the pooled samples were transferred to 15-mL conical centrifuge tubes for extraction. To each subsample, 6 mL of methanol were added and each mixture was vortexed vigorously and then centrifuged at 5700×g for 15 minutes. The supernatant (extract 1) was transferred to a 15-mL tube. The pellets were further extracted with methanol (2 mL). Each sample was vortexed thoroughly to ensure mixing. The samples were centrifuged as described above. The supernatant (extract 2) was removed. The total volume of each extract was recorded. […] All extracts and reconstituted extracts were analyzed by LSC. Reconstituted extracts containing sufficient radioactivity were analyzed by HPLC.
Terminal plasma samples were pooled, extracted and prepared for HPLC analysis as described above. For Group 1, terminal plasma samples (2, 6, and 24 h) were pooled and analyzed by HPLC as described above. For Group 2, only the 6-h sample had sufficient radioactivity for analysis. […]

Sequence of CYP2B6 (P20813 whole entry): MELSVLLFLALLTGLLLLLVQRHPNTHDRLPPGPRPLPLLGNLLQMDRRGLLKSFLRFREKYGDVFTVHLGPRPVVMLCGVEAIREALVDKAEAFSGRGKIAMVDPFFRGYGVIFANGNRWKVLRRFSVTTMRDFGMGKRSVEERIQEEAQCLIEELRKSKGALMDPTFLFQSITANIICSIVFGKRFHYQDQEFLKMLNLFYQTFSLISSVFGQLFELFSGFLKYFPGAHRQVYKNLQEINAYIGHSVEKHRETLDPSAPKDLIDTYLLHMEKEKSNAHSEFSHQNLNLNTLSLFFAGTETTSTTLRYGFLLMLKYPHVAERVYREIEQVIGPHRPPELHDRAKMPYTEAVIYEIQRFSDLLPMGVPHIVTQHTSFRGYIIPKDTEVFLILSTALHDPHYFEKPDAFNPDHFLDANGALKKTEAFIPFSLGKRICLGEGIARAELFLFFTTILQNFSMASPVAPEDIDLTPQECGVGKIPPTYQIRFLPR

On to `CC(C)(CO)C(=O)SCCOP(=O)(NCc1ccccc1)OC[C@H]1O[C@@H](n2cnc3c(=O)[nH]c(N)nc32)[C@](C)(O)[C@@H]1O` (mixture of isomers) [Compound 1, 3-hydroxy-2,2-dimethyl-thiopropionic acid S-(2-{[(2R,3R,4R,5R)-5-(2-amino-6-oxo-1,6-dihydro-purin-9-yl)-3,4-dihydroxy-4-methyl-tetrahydro-furan-2-ylmethoxy]-benzylamino-phosphoryloxy}-ethyl) ester], for which the CC50 at 3 days in data set [1] and in data set [2] was over 100 µM throughout. Further, the “Fold shift from wild-type” value in data set [3] (184R-D2 (S282T), EC50 in resistant line divided by EC50 in wild-type cells) amounted to 130 fold; in data set [4] (GS4.1 (wild-type), EC50 reference) it was 1 fold. Also, the results for the EC50 in data set [3] (Hepatitis C virus) and in data set [4] (Hepatitis C virus) were 39 ± 10 µM and 0.3 µM, respectively. In addition, the “% Residual Compound 1” value at CYP2B6 worked out at 108%.
Turning to `C[C@@]1(O)[C@H](O)[C@@H](CO)O[C@H]1n1cnc2c(=O)[nH]c(N)nc21` [2′-C-methyl guanosine, 9-(2-C-methyl-β-D-ribofuranosyl)guanine, reference compound], the Plasma metabolites detected entry in data set [5] is “only detectable metabolite”.
